Tested on: Vibrio anguillarum (V-775)
Assay: Vaccine augmentation in Rainbow trout challenged with Vibrio anguillarum
Assay type: in vivo, Rainbow trout (Oncorhynchus mykiss)
Protocol: In the present investigation, fish were obtained and inoculated at approximately 12 weeks of age. Immunologic studies were conducted under a variety of conditions in which fish were provided with vaccination to observe vaccine augmentation, and under conditions in which no vaccine was provided prior to inoculum. The effects of exposure time, HM897 concentration, and vaccine on mortalities relative to control studies in which no HM897 was administered provided data for analysis of the immunologic effect of HM897.
The study was conducted using Rainbow trout (Oncorhynchus mykiss) to compare the effects of a standard fish vaccine to the protection provided by varying dosages of HM897. The fish were challenged with Vibrio anguillarum (V-775), a bacteria that causes fatal vibriosis, typically 3-5 days following pathogen exposure.
Rainbow Trout (Oncorhynchus mykiss) weighing approximately 5 grams were used as test organisms. The fish were obtained from Cran-Mar Trout Farm. Upon arrival at BRL's facility, the fish were quarantined for a minimum of seven days, and observed to be disease free. During this period, the fish were held at a stable temperature. There was consistent water quality in an aerated flow-through system with a flow rate of approximately 30 liters per hour. During the holding period the fish were observed daily for signs of disease, stress, injury, hemorrhaging, and external parasite. The fish were not fed 48 hours prior to testing.
The Rainbow trout used in this study weighed an average of 5 grams. The fish were divided into 21 groups with 50 fish per group. Each group of 50 fish was maintained in two 10-gallon tanks (25 fish/tank).
The level of bacterial dilution to achieve a LD75 (the level designed to kill 75% of the non-vaccinated fish) was a dilution of 10^−4. to 10^−5. The challenge bacteria were grown for 48 hours at 25° C in trypticase soy broth. The 10^−4 dilution was made from this broth in 0.9% saline. All fish excepting the control group that received no bacterial challenge were inoculated 7 days after exposure to HM897.
Rainbow trout hatchling were exposed to the concentration of HM897 as described below. Some of the fish had been vaccinated while others had received no vaccination. In each tank, fifty vaccinated or unvaccinated fish were exposed for a period of 5 minutes to HM897, and then removed and placed in an assigned tank according to the group number.
The positive control group (III) received a vaccine made from Vibrio anguillarum (V-775). This was made through a fermentation and extraction process in the BRL laboratory facility and is equivalent to the aquaculture industry standard vibrio vaccine.
All groups scheduled to be challenged with the Vibrio anguillarum bacterium were challenged at the LD75 dilution on day seven of the experiment by i.p. injection of 0.1 mL of 10^−4 bacterial dilution. The fish were observed daily for mortalities.

Substance: Thr-Ala-Glu-Glu-Lys (TAEEK) [HM897]
- Cumulative Mortalities (Day 1, Group IVa: vaccinated, HM897 2.5 μg/38 liters): 0
- Cumulative Mortalities (Day 1, Group IVb: vaccinated, HM897 10 μg/38 liters): 0
- Cumulative Mortalities (Day 1, Group IVc: vaccinated, HM897 50 μg/38 liters): 0
- Cumulative Mortalities (Day 1, Group IVd: vaccinated, HM897 100 μg/38 liters): 0
- Cumulative Mortalities (Day 1, Group Va: not vaccinated, HM897 10 μg/38 liters): 0
- Cumulative Mortalities (Day 1, Group Vb: not vaccinated, HM897 25 μg/38 liters): 0
- Cumulative Mortalities (Day 1, Group Vc: not vaccinated, HM897 75 μg/38 liters): 0
- Cumulative Mortalities (Day 1, Group Vd: not vaccinated, HM897 150 μg/38 liters): 0
- Cumulative Mortalities (Day 2.10, Group IVa: vaccinated, HM897 2.5 μg/38 liters): 0
- Cumulative Mortalities (Day 2.10, Group IVb: vaccinated, HM897 10 μg/38 liters): 0
- Cumulative Mortalities (Day 2.10, Group IVc: vaccinated, HM897 50 μg/38 liters): 0
- Cumulative Mortalities (Day 2.10, Group IVd: vaccinated, HM897 100 μg/38 liters): 0
- Cumulative Mortalities (Day 2.10, Group Va: not vaccinated, HM897 10 μg/38 liters): 0
- Cumulative Mortalities (Day 2.10, Group Vb: not vaccinated, HM897 25 μg/38 liters): 0
- Cumulative Mortalities (Day 2.10, Group Vc: not vaccinated, HM897 75 μg/38 liters): 0
- Cumulative Mortalities (Day 2.10, Group Vd: not vaccinated, HM897 150 μg/38 liters): 0
- Cumulative Mortalities (Day 11, Group IVa: vaccinated, HM897 2.5 μg/38 liters): 0
- Cumulative Mortalities (Day 11, Group IVb: vaccinated, HM897 10 μg/38 liters): 0
- Cumulative Mortalities (Day 11, Group IVc: vaccinated, HM897 50 μg/38 liters): 0
- Cumulative Mortalities (Day 11, Group IVd: vaccinated, HM897 100 μg/38 liters): 0
- Cumulative Mortalities (Day 11, Group Va: not vaccinated, HM897 10 μg/38 liters): 0
- Cumulative Mortalities (Day 11, Group Vb: not vaccinated, HM897 25 μg/38 liters): 0
- Cumulative Mortalities (Day 11, Group Vc: not vaccinated, HM897 75 μg/38 liters): 1
- Cumulative Mortalities (Day 11, Group Vd: not vaccinated, HM897 150 μg/38 liters): 0
- Cumulative Mortalities (Day 12, Group IVa: vaccinated, HM897 2.5 μg/38 liters): 0
- Cumulative Mortalities (Day 12, Group IVb: vaccinated, HM897 10 μg/38 liters): 0
- Cumulative Mortalities (Day 12, Group IVc: vaccinated, HM897 50 μg/38 liters): 0
- Cumulative Mortalities (Day 12, Group IVd: vaccinated, HM897 100 μg/38 liters): 0
- Cumulative Mortalities (Day 12, Group Va: not vaccinated, HM897 10 μg/38 liters): 0
- Cumulative Mortalities (Day 12, Group Vb: not vaccinated, HM897 25 μg/38 liters): 0
- Cumulative Mortalities (Day 12, Group Vc: not vaccinated, HM897 75 μg/38 liters): 1
- Cumulative Mortalities (Day 12, Group Vd: not vaccinated, HM897 150 μg/38 liters): 0
- Cumulative Mortalities (Day 13, Group IVa: vaccinated, HM897 2.5 μg/38 liters): 1
- Cumulative Mortalities (Day 13, Group IVb: vaccinated, HM897 10 μg/38 liters): 1
- Cumulative Mortalities (Day 13, Group IVc: vaccinated, HM897 50 μg/38 liters): 1
- Cumulative Mortalities (Day 13, Group IVd: vaccinated, HM897 100 μg/38 liters): 8
- Cumulative Mortalities (Day 13, Group Va: not vaccinated, HM897 10 μg/38 liters): 16
- Cumulative Mortalities (Day 13, Group Vb: not vaccinated, HM897 25 μg/38 liters): 18
- Cumulative Mortalities (Day 13, Group Vc: not vaccinated, HM897 75 μg/38 liters): 21
- Cumulative Mortalities (Day 13, Group Vd: not vaccinated, HM897 150 μg/38 liters): 14
- Cumulative Mortalities (Day 14, Group IVa: vaccinated, HM897 2.5 μg/38 liters): 7
- Cumulative Mortalities (Day 14, Group IVb: vaccinated, HM897 10 μg/38 liters): 5
- Cumulative Mortalities (Day 14, Group IVc: vaccinated, HM897 50 μg/38 liters): 5
- Cumulative Mortalities (Day 14, Group IVd: vaccinated, HM897 100 μg/38 liters): 15
- Cumulative Mortalities (Day 14, Group Va: not vaccinated, HM897 10 μg/38 liters): 24
- Cumulative Mortalities (Day 14, Group Vb: not vaccinated, HM897 25 μg/38 liters): 25
- Cumulative Mortalities (Day 14, Group Vc: not vaccinated, HM897 75 μg/38 liters): 29
- Cumulative Mortalities (Day 15, Group IVa: vaccinated, HM897 2.5 μg/38 liters): 10
- Cumulative Mortalities (Day 15, Group IVb: vaccinated, HM897 10 μg/38 liters): 6
- Cumulative Mortalities (Day 15, Group IVc: vaccinated, HM897 50 μg/38 liters): 10
- Cumulative Mortalities (Day 15, Group IVd: vaccinated, HM897 100 μg/38 liters): 16
- Cumulative Mortalities (Day 15, Group Va: not vaccinated, HM897 10 μg/38 liters): 28
- Cumulative Mortalities (Day 15, Group Vb: not vaccinated, HM897 25 μg/38 liters): 32
- Cumulative Mortalities (Day 15, Group Vc: not vaccinated, HM897 75 μg/38 liters): 32
- Cumulative Mortalities (Day 16, Group IVa: vaccinated, HM897 2.5 μg/38 liters): 13
- Cumulative Mortalities (Day 16, Group IVb: vaccinated, HM897 10 μg/38 liters): 6
- Cumulative Mortalities (Day 16, Group IVc: vaccinated, HM897 50 μg/38 liters): 10
- Cumulative Mortalities (Day 16, Group IVd: vaccinated, HM897 100 μg/38 liters): 17
- Cumulative Mortalities (Day 16, Group Va: not vaccinated, HM897 10 μg/38 liters): 33
- Cumulative Mortalities (Day 16, Group Vb: not vaccinated, HM897 25 μg/38 liters): 33
- Cumulative Mortalities (Day 16, Group Vc: not vaccinated, HM897 75 μg/38 liters): 33
- Cumulative Mortalities (Day 17, Group IVa: vaccinated, HM897 2.5 μg/38 liters): 13
- Cumulative Mortalities (Day 17, Group IVb: vaccinated, HM897 10 μg/38 liters): 7
- Cumulative Mortalities (Day 17, Group IVc: vaccinated, HM897 50 μg/38 liters): 10
